Laboratory results reported in paper PMC6328429, “Synthesis of a benzoxazinthione derivative of tanaproget and pharmacological evaluation for PET imaging of PR expression” (EJNMMI Radiopharmacy and Chemistry, 2019).
“And” between values parts separate entries of the source, which are not always exact repeats. Equal entries are not always repeated. “Also recorded” adds a separate entry of the source. Where two headings read alike, the source gives them in different places.

How the values were obtained:
[1] = Distribution coefficient analysis (LogD7.4), n-octanol/PBS; assay type: physicochemical
Method: Radioligand [^18F]2 (0.03 MBq, 1 μL, in EtOH) was mixed with PBS (500 μL) and n-octanol (500 μL). The sample was vortexed (10 min) followed by centrifugation (1×g, 10 min). Three aliquots (100 μL) from each layer were taken and counts measured using a 2480 WIZARD2 Automatic Gamma Counter (PerkinElmer, UK). Experiment was repeated in triplicate in n = 3 determinations (supporting information, Additional file 1: Table S1). Distribution coefficient (LogD7.4) was calculated as the logarithm of the ratio between CPM of the octanol and buffer phase.

T47D cells = test: Cell uptake study of radioligand in breast cancer cell lines; assay type: cell-based, human
Method: T47D, MCF-7 and MDA-MB-231 cells (1 × 10^5) were plated into 6-well plates and used for receptor binding assays at 60–80% confluence. Cell medium was removed and cells were washed with cold PBS buffer. [^18F]2 (37 kBq/mL) was added to individual wells and cells were incubated at 37 °C in a humidified atmosphere of 5% CO2 for 60 min. Cells were co-incubated with 0.01–1 μM of cold progesterone for the blocking study. Cells were then washed 3 times with ice-cold PBS and lysed with RIPA buffer. Radioactivity was determined using a gamma spectrometer (Automatic Gamma counter, Wizard 3 Wallac). Radioactivity was normalised to protein content determined using a BCA 96-well plate assay (Thermo Fisher Scientific Inc., USA) and expressed as a percentage of total radioactivity per mg of protein.

[2] = Ex vivo biodistribution in C57BL/6 female mice; conditions: 50 min p.i.
Method: Pubertal female C57BL/6 mice were injected intraperitoneally with 30 IU gonadotropins, 15 IU Follicle-stimulating hormone (FSH) and 15 IU luteinizing hormone (LH) followed by 5 IU […] (hCG) after 48 h (Sigma-Aldrich, Gillingham, UK). After the imaging studies, the ovaries were removed and snap-frozen in liquid nitrogen for later analysis of protein expression by western blot.
[^18F]2 (455 ± 62 kBq) was injected into the tail vail of female C57BL/6 mice. Whilst under anaesthesia the animals were sacrificed and tissues of interest such as, heart, lung, liver, spleen, kidneys, stomach, muscle, bone, ovary, small intestines and large intestines were collected in pre-weighed counting tubes. Radioactivity within tissue samples was counted in a gamma spectrometer (Automatic Gamma Counter, Wizard 3 Wallac), and then weighed to determine the mass of the tissue. CPM for each tissue sample was normalised to the total injected dose of radioactivity to the animal to give %ID (injected dose), and then normalised to the weight of the counted tissue to give the radioactivity uptake of the tissue as %ID/g. Tabulated values shown in Additional file 1: Table S2.

[3] = Dynamic PET/CT imaging in C57BL/6 female mice; assay type: in vivo; conditions: PET images acquired over 50 min
Method: Mice were anaesthetised with 3–5% isoflurane at a flow rate of 1 L/min, and then reduced to 1.5–2% isoflurane for anaesthesia maintenance during imaging. [^18F]2 was injected via the tail vein at the commencement of a dynamic PET scan using a dedicated small animal PET/CT scanner (Sedecal SuperArgus2R, Sedecal, Spain). Images were acquired over a 50 min imaging sequence, followed by CT imaging acquired in 514 projections for anatomic coregistration. PET emission data were corrected for decay and dead time and reconstructed using 3D-OSEM. Data were analysed based on regions of interest (ROI) drawn within the tumours and tissue. Time-activity curves (TAC) were calculated as an average form the region of interest analysis of three mice (Additional file 1: Figure S34). Data was analysed using AMIDE software (Loening and Gambhir, [2003]) and VivoQuant (InVicro, MA, USA) and regions of interest (ROIs) were selected by hand, and the count densities were averaged for each frame to obtain a TAC for each ROI.

[4] = In vitro radioactive metabolite analysis in mouse liver microsomes; assay type: in vitro ADME; conditions: MLM, 60 min, radio-HPLC integration
Method: Radioligand [^18F]2 (3 MBq, ca. 80 μL), mouse liver microsomes (50 μL, 1 mg/mL), NADPH regeneration system A (50 μL), NADPH regeneration system B (10 μL), PBS 0.5 M pH 7.5 (200 μL) and water (ca. 200 μL) were added to a plastic 1.5 mL tube. The mixture was incubated at 37 °C for 60 min and transferred into a plastic centrifuge tube (10 mL). Proteins were precipitated with ice-cold MeOH (2 mL) and the mixture was centrifuged (12,000 g, 3 min) to pellet the precipitate. The supernatant was removed, evaporated to dryness and the residue was suspended in 37% MeCN + 0.1%TFA / 63% Water + 0.1%TFA for RP-HPLC using gradient 3 (supporting information, section 10.3). The experiment was performed in n = 3 determinations. Extraction efficiency of radioactivity from the protein pellet was calculated to be 93.5% ± 1.6 (Additional file 1: Table S3). HPLC data is shown in the supporting information (Additional file 1: Figure S35).

[5] = Stability of formulated radioligand; assay type: physicochemical; conditions: up to 4 h after formulation; 10% (v/v) EtOH/PBS
[6] = PR-induced (PR+, gonadotropin stimulated) mice, mean ± SEM

CC1(C)OC(=S)Nc2ccc(-c3cccnc3[18F])cc21 [[^18F]2]
logD ([1]; pH 7.4, PBS (pH 7.4) / octan-1-ol, three repeats in triplicate, read-out: Distribution coefficient (LogD7.4), mean ± SD): 1.69 ± 0.1 | logD ([1]; pH 7.4, single measurements (Run 1-3, a-c), read-out: LogD7.5): 1.67 | Uptake of radioligand in cell lines (T47D cells; T47D (PR++) compared to MCF7 (PR+) and MDA-MB-231 (PR-), 60 min, 37 °C): significant accumulation in T47D cells | Uptake in T47D cells on co-incubation with progesterone (blocking) (T47D cells; T47D cells, progesterone 0.01–0.1 μM): decreased in a dose-dependent manner | Bone uptake ratio, gonadotropin-stimulated vs control mice [2]: 2 fold | Biodistribution, blood [2, 6]: 1.30 ± 0.30 %ID/g | Biodistribution, bone [2, 6]: 31.21 ± 5.99 %ID/g | Biodistribution, brain [2, 6]: 0.40 ± 0.09 %ID/g | Biodistribution, heart [2, 6]: 1.47 ± 0.31 %ID/g | Biodistribution, kidney [2, 6]: 3.89 ± 1.26 %ID/g | Biodistribution, large intestine [2, 6]: 13.25 ± 1.70 %ID/g | Biodistribution, liver [2, 6]: 14.48 ± 4.91 %ID/g | Biodistribution, lungs [2, 6]: 1.33 ± 0.28 %ID/g | Biodistribution, muscle [2, 6]: 1.55 ± 0.44 %ID/g | Biodistribution, small intestine [2, 6]: 36.08 ± 1.21 %ID/g | Biodistribution, spleen [2, 6]: 0.15 ± 0.06 %ID/g | Biodistribution, stomach [2, 6]: 3.41 ± 0.26 %ID/g | Biodistribution, urine [2, 6]: 12.93 ± 12.56 %ID/g | Biodistribution, blood ([2]; control (PR-) mice, mean ± SEM): 0.01 ± 0.000 %ID/g | Biodistribution, bone ([2]; control (PR-) mice, mean ± SEM): 15.37 ± 3.47 %ID/g | Biodistribution, brain ([2]; control (PR-) mice, mean ± SEM): 0.41 ± 0.09 %ID/g | Biodistribution, heart ([2]; control (PR-) mice, mean ± SEM): 1.40 ± 0.33 %ID/g | Biodistribution, kidney ([2]; control (PR-) mice, mean ± SEM): 4.02 ± 1.18 %ID/g | Biodistribution, large intestine ([2]; control (PR-) mice, mean ± SEM): 1.30 ± 0.07 %ID/g | Biodistribution, liver ([2]; control (PR-) mice, mean ± SEM): 6.19 ± 1.74 %ID/g | Biodistribution, lungs ([2]; control (PR-) mice, mean ± SEM): 1.28 ± 0.35 %ID/g | Biodistribution, muscle ([2]; control (PR-) mice, mean ± SEM): 0.91 ± 0.19 %ID/g | Biodistribution, ovary ([2]; control (PR-) mice, mean ± SEM): 1.32 ± 0.22 %ID/g | Biodistribution, small intestine ([2]; control (PR-) mice, mean ± SEM): 30.49 ± 3.05 %ID/g | Biodistribution, spleen ([2]; control (PR-) mice, mean ± SEM): 0.99 ± 0.28 %ID/g | Biodistribution, stomach ([2]; control (PR-) mice, mean ± SEM): 0.73 ± 0.17 %ID/g | Biodistribution, urine ([2]; control (PR-) mice, mean ± SEM): 10.94 ± 8.40 %ID/g | Distribution of radioactivity in PET images [3]: Extensive skeletal uptake; also recorded: accumulation of radioactivity in the liver and small intestines, but also in the spine, joints and skull | [^18F]2 parent (Rt = ca 12:21 min:sec), single run ([4]; individual runs / representative chromatogram): 33.3% and 36.3% and 36.6% | [^18F]2 parent (Rt = ca 12:21 min:sec), mean ± SD ([4]; n = 3): 35.4 ± 1.8% | Stability after formulation [5]: 99.7%
